Legend:
human A2A receptors = human A2A receptors (Homo sapiens (Human), UniProt P29274); assay: A2A adenosine receptor competition radioligand binding assay; details: membranes from human A2A receptors transfected to HeLa cells, [3H]-ZM241385
Description: (§1) Human membranes for recombinant adenosine receptors were purchased from Receptor Biology, Inc. (USA).
A2A Adenosine Receptor Competition Radioligand Binding Assay
Competitive assays were carried out by incubation of membranes from human A2A receptors transfected to HeLa cells, [^3H]-ZM241385, buffer (Tris-HCl 50 mM (pH=7.4), 10 mM MgCl2, EDTA 1 mM and 2 units/ml adenosine deaminase), and unlabelled ligand in a total volume of 0.2 ml for 60 min at 25° C. NECA was used to determine nonspecific binding. It was filtered over Schleicher & Schuell GF/52 (presoaked with 0.5% polyethyleneimine) in a Brandel cell harvester. The unbound radioligand was removed with 3×250 μl of 20 mM Tris-HCl 50 mM (pH=7.4), 10 mM MgCl2, EDTA 1 mM.

adenosine A2B receptor = adenosine A2B receptor (Homo sapiens (Human), UniProt P29275); assay: A2B adenosine receptor competition radioligand binding assay; details: human recombinant source (HEK-293 cells), [3H]DPCPX
Description: A2B Adenosine Receptor Competition Radioligand Binding Assay
The binding assay for adenosine A2B receptor subtype was carried out on human recombinant source (HEK-293 cells) and [^3H]DPCPX as radioligand, according to assay disclosed by Fredholm et al. (International Union of Pharmacology. XXV. Nomenclature and classification of adenosine receptors, Pharmacol Rev. 2001 December; 53(4):527-52).

human A3 receptors = human A3 receptors (Homo sapiens (Human), UniProt P0DMS8); assay: A3 adenosine receptor competition radioligand binding assay; details: membranes from human A3 receptors transfected to CHO cells, [3H]-NECA
Description: as §1
A3 Adenosine Receptor Competition Radioligand Binding Assay
Competitive assays were carried out by incubation of membranes from human A3 receptors transfected to CHO cells, [^3H]-NECA, buffer (20 mM HEPES (pH 7.4), 100 mM NaCl, 10 mM MgCl2, 2 units/ml adenosine deaminase), and unlabelled ligand in a total volume of 0.2 ml for 60 min at 25° C. R-PIA was used to determine nonspecific binding. It was filtered over Schleicher & Schuell GF/52 (presoaked with 0.5% polyethyleneimine) in a Brandel cell harvester. The unbound radioligand was removed with 3×250 μl of 20 mM HEPES (pH 7.4), 100 mM NaCl, 10 mM MgCl2.

hA1 receptors = hA1 receptors (Homo sapiens (Human), UniProt P30542); assay: Adenosine A1 receptor subtype competition radioligand binding assay; details: hA1 receptors transfected to CHO cells, [3H]DPCPX
Description: as §1
Adenosine A1 Receptor Subtype Competition Radioligand Binding Assay
Competition assays were carried out by incubation of human recombinant membranes of adenosine receptors (Receptor Biology, Inc.) from hA1 receptors transfected to CHO cells, [^3H] DPCPX as radioligand, buffer (HEPES 20 mM (pH=7.4), 10 mM MgCl2, 100 mM NaCl, 2 U/mL of deaminase adenosine and non-labelled ligand in a total volume of 0.2 mL for 90 min at 25° C. R-PIA was used to determinate non-specific binding. Filter over Schleicher & Schuell GF/52 (pre-soaked 0.5% polyethylenimine) in a Brandel cell harvester. Unbound radioligand was removed with HEPES 30 mM (3×250 μl), NaCl (100 mM) and MgCl2 (10 mM).

A3AR receptor = A3AR receptor (Homo sapiens (Human), UniProt P0DMS8); details: read-out: affinity on the A3AR receptor (IC50); cited from earlier work
[1] = test system: experimental autoimmune uveitis; details: experimental autoimmune uveitis model; cited from earlier work
[2] = test system: rheumatoid arthritis (RA) patients; details: oral administration twice daily for 12 weeks; cited from earlier work

adenosine A2B receptor, sequence (P29275 whole entry): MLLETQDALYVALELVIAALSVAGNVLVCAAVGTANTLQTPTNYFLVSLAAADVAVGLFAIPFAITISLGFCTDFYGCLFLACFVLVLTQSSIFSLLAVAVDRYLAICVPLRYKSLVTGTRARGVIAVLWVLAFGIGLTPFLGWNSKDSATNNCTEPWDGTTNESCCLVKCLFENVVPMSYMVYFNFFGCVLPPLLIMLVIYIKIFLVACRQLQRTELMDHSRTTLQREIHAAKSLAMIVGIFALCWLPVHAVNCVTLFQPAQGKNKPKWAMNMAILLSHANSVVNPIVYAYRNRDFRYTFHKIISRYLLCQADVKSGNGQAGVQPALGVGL
human A2A receptors, sequence (P29274 whole entry): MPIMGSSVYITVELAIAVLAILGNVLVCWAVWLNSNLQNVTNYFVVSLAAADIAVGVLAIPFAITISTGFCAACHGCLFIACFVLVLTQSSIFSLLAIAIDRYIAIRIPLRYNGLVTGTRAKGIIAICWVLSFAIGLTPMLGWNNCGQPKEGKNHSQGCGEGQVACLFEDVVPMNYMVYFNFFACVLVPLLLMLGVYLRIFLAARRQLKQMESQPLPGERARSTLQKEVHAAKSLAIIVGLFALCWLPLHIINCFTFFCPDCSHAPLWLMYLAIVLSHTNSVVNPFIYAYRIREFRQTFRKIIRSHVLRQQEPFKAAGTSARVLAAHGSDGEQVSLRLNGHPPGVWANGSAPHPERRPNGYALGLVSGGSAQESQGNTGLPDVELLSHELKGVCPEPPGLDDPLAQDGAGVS
human A3 receptors, sequence (P0DMS8 whole entry): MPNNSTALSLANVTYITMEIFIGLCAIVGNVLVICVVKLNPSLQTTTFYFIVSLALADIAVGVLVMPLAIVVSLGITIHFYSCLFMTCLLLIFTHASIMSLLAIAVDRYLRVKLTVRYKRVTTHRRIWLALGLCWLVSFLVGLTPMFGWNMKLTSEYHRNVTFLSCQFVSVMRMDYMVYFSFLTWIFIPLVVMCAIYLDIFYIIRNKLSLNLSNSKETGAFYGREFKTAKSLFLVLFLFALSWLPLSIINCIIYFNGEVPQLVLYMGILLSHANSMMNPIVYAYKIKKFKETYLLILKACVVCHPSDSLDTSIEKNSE
hA1 receptors, sequence (P30542 whole entry): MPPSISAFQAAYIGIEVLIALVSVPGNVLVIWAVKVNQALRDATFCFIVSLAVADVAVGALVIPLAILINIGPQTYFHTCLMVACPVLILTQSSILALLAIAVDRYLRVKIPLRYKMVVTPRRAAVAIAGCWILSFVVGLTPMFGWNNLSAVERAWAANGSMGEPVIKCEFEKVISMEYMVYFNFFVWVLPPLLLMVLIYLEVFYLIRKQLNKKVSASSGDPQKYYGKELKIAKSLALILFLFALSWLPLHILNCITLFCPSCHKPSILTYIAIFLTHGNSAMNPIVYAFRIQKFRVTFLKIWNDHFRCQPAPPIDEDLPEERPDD
A3AR receptor, sequence (P0DMS8 whole entry): as the sequence (P0DMS8 whole entry) above

SMILES | Ki (human A2A receptors) [nM] | Ki (adenosine A2B receptor) [nM] | Ki (human A3 receptors) [nM] | Ki (hA1 receptors) [nM] | IC50 (A3AR receptor) [µM] | effect on manifestations of uveitis [1] | effect on disease signs and symptoms [2] | safety and tolerability [2]
N#Cc1sc(NC(=O)c2ccc(N3CCC(C(=O)O)CC3)nc2)nc1-c1cccc(F)c1 [Example 6, 1-(5-((5-cyano-4-(3-fluorophenyl)thiazol-2-yl)carbamoyl)pyridin-2-yl) piperidine-4-carboxylic Acid] | > 1000 | > 1000 | 50.3 | > 1000 |  |  |  | 
N#Cc1sc(NC(=O)c2ccc(N3CCC(C(=O)O)CC3)nc2)nc1-c1ccccc1 [Example 1, 1-(5-(5-cyano-4-phenylthiazol-2-ylcarbamoyl)pyridin-2-yl) piperidine-4-carboxylic Acid] | > 1000 | > 500 | 103 | > 500 |  |  |  | 
COc1cc(Nc2ncc(F)c(Nc3ccc4c(n3)N(COP(=O)(O)O)C(=O)C(C)(C)O4)n2)cc(OC)c1OC [fostamatinib] |  |  |  |  | 0.081 |  |  | 
N#Cc1sc(NC(=O)c2ccc(N3CCC(C(=O)O)CC3)nc2)nc1-c1cccs1 [Example 14, 1-(5-(5-cyano-4-(thiophen-2-yl)thiazol-2-ylcarbamoyl)pyridin-2-yl) piperidine-4-carboxylic Acid] | > 500 | > 1000 | 29.2 | > 500 |  |  |  | 
N#Cc1sc(NC(=O)c2ccc(N3CCC(C(=O)O)CC3)nc2)nc1-c1ccccc1F [Example 5, 1-(5-((5-cyano-4-(2-fluorophenyl)thiazol-2-yl)carbamoyl)pyridin-2-yl) piperidine-4-carboxylic Acid] | > 1000 | > 500 | 26.3 | > 500 |  |  |  | 
COc1cccc(-c2nc(NC(=O)c3ccc(N4CCC(C(=O)O)CC4)nc3)sc2C#N)c1 [Example 3, 1-(5-((5-cyano-4-(3-methoxyphenyl)thiazol-2-yl)carbamoyl)pyridin-2-yl) piperidine-4-carboxylic Acid] | > 1000 | > 1000 | 65.5 | > 1000 |  |  |  | 
CNC(=O)[C@H]1O[C@@H](n2cnc3c(NCc4cccc(I)c4)ncnc32)[C@H](O)[C@@H]1O [IB-MECA, 1-deoxy-1-[6-[((3-iodophenyl)methyl)amino]-9H-purin-9-yl]-N-methyl-β-D-ribofuranuronamide] |  |  |  |  |  | inhibited the clinical and pathological manifestations of uveitis | able to mediate an improvement of disease signs and symptoms | safe, well tolerated

Reference: patent US10744125B2, “Adenosine A3 receptor modulators” (Palobiofarma, S.L., priority 2017, dated 2020)
